Assay results as given in PubChem BioAssay (NCI).
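Interpolation was linear, between the two tested concentrations surrounding the appropriate level; five concentrations were tested over 48 hours in 96-well plates. Here, GI50 denotes the concentration required for 50% inhibition of growth. TGI: total growth inhibition.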

How the values were obtained:
Test in all cases: NCI-60 cell line screen, 48 h
K-562 leukemia = test system: K-562 leukemia
NCI-H23 lung = test system: NCI-H23 lung
IGROV1 ovarian = test system: IGROV1 ovarian
RXF 393 renal = test system: RXF 393 renal
SNB-75 CNS = test system: SNB-75 CNS
HCT-15 colon = test system: HCT-15 colon
MOLT-4 leukemia = test system: MOLT-4 leukemia
UACC-62 melanoma = test system: UACC-62 melanoma
SK-MEL-28 melanoma = test system: SK-MEL-28 melanoma
OVCAR-3 ovarian = test system: OVCAR-3 ovarian

OC1CC2CCC(C1)N2CCCN1c2ccccc2Sc2ccc(Cl)cc21 (stereo not given)
TGI (K-562 leukemia): 4.61 µM
TGI (NCI-H23 lung): 8.12 µM
TGI (IGROV1 ovarian): 5.01 µM
TGI (RXF 393 renal): 4.04 µM
TGI (SNB-75 CNS): 5.23 µM
TGI (HCT-15 colon): 6.65 µM
TGI (MOLT-4 leukemia): 5.8 µM
TGI (UACC-62 melanoma): 3.39 µM
TGI (SK-MEL-28 melanoma): 3.69 µM
TGI (OVCAR-3 ovarian): 8.27 µM

O=C(c1c(F)c(F)c(F)c(F)c1F)c1c(F)c(F)c(F)c(F)c1F
TGI (K-562 leukemia): > 100 µM
TGI (NCI-H23 lung): 7.87 µM
TGI (IGROV1 ovarian): 2.64 µM
TGI (RXF 393 renal): 2.94 µM
TGI (SNB-75 CNS): 3.48 µM
TGI (HCT-15 colon): 3.83 µM
TGI (MOLT-4 leukemia): 0.764 µM
TGI (UACC-62 melanoma): 3.97 µM
TGI (SK-MEL-28 melanoma): 7.92 µM
TGI (OVCAR-3 ovarian): 2.43 µM

CCSC[C@@H]1C[C@](O)(c2ccc(Cl)cc2)[C@@H](c2ccc(Cl)cc2)O1
GI50 (K-562 leukemia): 18.8 µM
TGI (K-562 leukemia): 44.2 µM
GI50 (NCI-H23 lung): 19.3 µM
TGI (NCI-H23 lung): 41.6 µM
GI50 (IGROV1 ovarian): 15.3 µM
TGI (IGROV1 ovarian): 32.3 µM
GI50 (RXF 393 renal): 23.2 µM
TGI (RXF 393 renal): 38.5 µM
GI50 (SNB-75 CNS): 16.3 µM
TGI (SNB-75 CNS): 32.4 µM
GI50 (HCT-15 colon): 18.8 µM
TGI (HCT-15 colon): 38.7 µM
GI50 (MOLT-4 leukemia): 17.7 µM
TGI (MOLT-4 leukemia): 43.6 µM
GI50 (UACC-62 melanoma): 13.9 µM
TGI (UACC-62 melanoma): 30.8 µM
GI50 (SK-MEL-28 melanoma): 16.2 µM
TGI (SK-MEL-28 melanoma): 32.8 µM
GI50 (OVCAR-3 ovarian): 18.8 µM
TGI (OVCAR-3 ovarian): 36.1 µM

COc1ccc(Nc2nc(NCCNc3ccnc4cc(Cl)ccc34)nc(N3CCOCC3)n2)cc1
GI50 (K-562 leukemia): 2.09 µM
TGI (K-562 leukemia): 7.82 µM
GI50 (NCI-H23 lung): 13.7 µM
TGI (NCI-H23 lung): 29.7 µM
GI50 (IGROV1 ovarian): 8.43 µM
TGI (IGROV1 ovarian): 23.4 µM
GI50 (RXF 393 renal): 1.89 µM
TGI (RXF 393 renal): 8.92 µM
GI50 (SNB-75 CNS): 2.09 µM
TGI (SNB-75 CNS): 8.73 µM
GI50 (HCT-15 colon): 2.63 µM
TGI (HCT-15 colon): 10.9 µM
GI50 (MOLT-4 leukemia): 2.01 µM
TGI (MOLT-4 leukemia): 11.2 µM
GI50 (UACC-62 melanoma): 1.85 µM
TGI (UACC-62 melanoma): 3.59 µM
GI50 (SK-MEL-28 melanoma): 1.81 µM
TGI (SK-MEL-28 melanoma): 3.28 µM
GI50 (OVCAR-3 ovarian): 11.5 µM
TGI (OVCAR-3 ovarian): 24.3 µM

CCCc1nn(C)c2c(=O)[nH]c(-c3cc(S(=O)(=O)N4CCN(C)CC4)ccc3OCC)nc12
GI50 (K-562 leukemia): > 100 µM
TGI (K-562 leukemia): > 100 µM
GI50 (NCI-H23 lung): > 100 µM
TGI (NCI-H23 lung): > 100 µM
GI50 (IGROV1 ovarian): 91.4 µM
TGI (IGROV1 ovarian): > 100 µM
GI50 (RXF 393 renal): > 100 µM
TGI (RXF 393 renal): > 100 µM
GI50 (SNB-75 CNS): 53.2 µM
TGI (SNB-75 CNS): > 100 µM
GI50 (HCT-15 colon): > 100 µM
TGI (HCT-15 colon): > 100 µM
GI50 (MOLT-4 leukemia): > 100 µM
TGI (MOLT-4 leukemia): > 100 µM
GI50 (UACC-62 melanoma): > 100 µM
TGI (UACC-62 melanoma): > 100 µM
GI50 (SK-MEL-28 melanoma): > 100 µM
TGI (SK-MEL-28 melanoma): > 100 µM
GI50 (OVCAR-3 ovarian): > 100 µM
TGI (OVCAR-3 ovarian): > 100 µM

COc1ccc(C(=O)C2CCC(C(=O)O)C2)cc1 (stereo not given)
TGI (K-562 leukemia): > 100 µM
TGI (NCI-H23 lung): > 100 µM
TGI (IGROV1 ovarian): > 100 µM
TGI (RXF 393 renal): > 100 µM
TGI (SNB-75 CNS): > 100 µM
TGI (HCT-15 colon): > 100 µM
TGI (MOLT-4 leukemia): > 100 µM
TGI (UACC-62 melanoma): > 100 µM
TGI (SK-MEL-28 melanoma): > 100 µM
TGI (OVCAR-3 ovarian): > 100 µM

O=C1c2c(c(=O)[nH]c3ccccc23)[C@H](c2ccccc2)[C@@H]2CCCN12
GI50 (K-562 leukemia): 5.63 µM
TGI (K-562 leukemia): > 100 µM
GI50 (NCI-H23 lung): 2.77 µM
TGI (NCI-H23 lung): 37.9 µM
GI50 (IGROV1 ovarian): 3.59 µM
TGI (IGROV1 ovarian): 15.6 µM
GI50 (RXF 393 renal): 1.88 µM
TGI (RXF 393 renal): 4.34 µM
GI50 (SNB-75 CNS): 2.64 µM
TGI (SNB-75 CNS): 16.9 µM
GI50 (HCT-15 colon): 3.37 µM
TGI (HCT-15 colon): > 100 µM
GI50 (MOLT-4 leukemia): 5.12 µM
TGI (MOLT-4 leukemia): 39.2 µM
GI50 (UACC-62 melanoma): 3.14 µM
TGI (UACC-62 melanoma): 22.3 µM
GI50 (SK-MEL-28 melanoma): 3.69 µM
TGI (SK-MEL-28 melanoma): 32.9 µM
GI50 (OVCAR-3 ovarian): 2.46 µM
TGI (OVCAR-3 ovarian): 7.1 µM

CCOC(=O)C(=Cc1ccc(C#N)cc1)C(=O)OCC
GI50 (K-562 leukemia): 3.44 µM
TGI (K-562 leukemia): > 100 µM
GI50 (NCI-H23 lung): 2.15 µM
TGI (NCI-H23 lung): 5.53 µM
GI50 (IGROV1 ovarian): 2.61 µM
TGI (IGROV1 ovarian): 7.96 µM
GI50 (RXF 393 renal): 1.87 µM
TGI (RXF 393 renal): 3.36 µM
GI50 (SNB-75 CNS): 2.17 µM
TGI (SNB-75 CNS): 10.5 µM
GI50 (HCT-15 colon): 2.03 µM
TGI (HCT-15 colon): 6.17 µM
GI50 (MOLT-4 leukemia): 3.09 µM
TGI (MOLT-4 leukemia): 11.5 µM
GI50 (UACC-62 melanoma): 1.99 µM
TGI (UACC-62 melanoma): 4.54 µM
GI50 (SK-MEL-28 melanoma): 2.35 µM
TGI (SK-MEL-28 melanoma): 6.56 µM
GI50 (OVCAR-3 ovarian): 2.01 µM
TGI (OVCAR-3 ovarian): 4.39 µM

Cc1ccc(OP(=O)(Oc2ccc(C)cc2)N2C=Cc3ccccc3C2C#N)cc1 (stereo not given)
TGI (K-562 leukemia): > 100 µM
TGI (NCI-H23 lung): > 100 µM
TGI (IGROV1 ovarian): > 100 µM
TGI (RXF 393 renal): > 100 µM
TGI (SNB-75 CNS): > 100 µM
TGI (HCT-15 colon): > 100 µM
TGI (MOLT-4 leukemia): > 100 µM
TGI (UACC-62 melanoma): > 100 µM
TGI (SK-MEL-28 melanoma): > 100 µM
TGI (OVCAR-3 ovarian): > 100 µM

COc1cc(CCC[P+](c2ccccc2)(c2ccccc2)c2ccccc2)c(OC)c2c1OCO2
GI50 (K-562 leukemia): 0.659 µM
TGI (K-562 leukemia): > 100 µM
GI50 (NCI-H23 lung): 1.67 µM
TGI (NCI-H23 lung): 10.3 µM
GI50 (IGROV1 ovarian): 1 µM
TGI (IGROV1 ovarian): 11.7 µM
GI50 (RXF 393 renal): 2.01 µM
TGI (RXF 393 renal): 8.43 µM
GI50 (SNB-75 CNS): 1.2 µM
TGI (SNB-75 CNS): 4.59 µM
GI50 (HCT-15 colon): 13.4 µM
TGI (HCT-15 colon): > 100 µM
GI50 (MOLT-4 leukemia): 3.33 µM
TGI (MOLT-4 leukemia): 18.9 µM
GI50 (UACC-62 melanoma): 0.629 µM
TGI (UACC-62 melanoma): 4.27 µM
GI50 (SK-MEL-28 melanoma): 0.875 µM
TGI (SK-MEL-28 melanoma): 14 µM
GI50 (OVCAR-3 ovarian): 0.633 µM
TGI (OVCAR-3 ovarian): 10.7 µM

CCC[CH2][Sn](=[O])[CH2]CCC
GI50 (K-562 leukemia): > 50 µM
TGI (K-562 leukemia): > 50 µM
GI50 (NCI-H23 lung): > 50 µM
TGI (NCI-H23 lung): > 50 µM
GI50 (IGROV1 ovarian): > 50 µM
TGI (IGROV1 ovarian): > 50 µM
GI50 (RXF 393 renal): 47.7 µM
TGI (RXF 393 renal): > 50 µM
GI50 (SNB-75 CNS): > 39.7 µM
TGI (SNB-75 CNS): > 50 µM
GI50 (HCT-15 colon): > 50 µM
TGI (HCT-15 colon): > 50 µM
GI50 (MOLT-4 leukemia): > 50 µM
TGI (MOLT-4 leukemia): > 50 µM
GI50 (UACC-62 melanoma): > 50 µM
TGI (UACC-62 melanoma): > 50 µM
GI50 (SK-MEL-28 melanoma): > 50 µM
TGI (SK-MEL-28 melanoma): > 50 µM
GI50 (OVCAR-3 ovarian): > 50 µM
TGI (OVCAR-3 ovarian): > 50 µM

COc1ccc2c(c1)CCC1C2CC[C@@]2(C)C1CC[C@@H]2NC(=O)Cc1ccc(O)c(O)c1 (stereo not given in full)
GI50 (K-562 leukemia): 4.31 µM
TGI (K-562 leukemia): > 100 µM
GI50 (NCI-H23 lung): 11.9 µM
TGI (NCI-H23 lung): 27.6 µM
GI50 (IGROV1 ovarian): 2.29 µM
TGI (IGROV1 ovarian): 7.68 µM
GI50 (RXF 393 renal): 10.7 µM
TGI (RXF 393 renal): 27.3 µM
GI50 (SNB-75 CNS): 3.44 µM
TGI (SNB-75 CNS): 12.5 µM
GI50 (HCT-15 colon): 3.74 µM
TGI (HCT-15 colon): 16.7 µM
GI50 (MOLT-4 leukemia): 2.76 µM
TGI (MOLT-4 leukemia): 83 µM
GI50 (UACC-62 melanoma): 4.14 µM
TGI (UACC-62 melanoma): 14.8 µM
GI50 (SK-MEL-28 melanoma): 9.9 µM
TGI (SK-MEL-28 melanoma): 24.2 µM
GI50 (OVCAR-3 ovarian): 3.7 µM
TGI (OVCAR-3 ovarian): 19.2 µM

CSc1ccc(C2=NN(C(C)=O)C(c3ccc(-c4cc(Cl)c(Cl)cc4Cl)o3)C2)cc1 (stereo not given)
GI50 (K-562 leukemia): 14.8 µM
TGI (K-562 leukemia): 34.2 µM
GI50 (NCI-H23 lung): 15.4 µM
TGI (NCI-H23 lung): 29.6 µM
GI50 (IGROV1 ovarian): 9.99 µM
TGI (IGROV1 ovarian): 24.9 µM
GI50 (RXF 393 renal): 17.6 µM
TGI (RXF 393 renal): 35.1 µM
GI50 (SNB-75 CNS): 18.7 µM
TGI (SNB-75 CNS): 43.2 µM
GI50 (HCT-15 colon): 14.8 µM
TGI (HCT-15 colon): 28 µM
GI50 (MOLT-4 leukemia): 12.1 µM
TGI (MOLT-4 leukemia): 35.3 µM
GI50 (UACC-62 melanoma): 10.2 µM
TGI (UACC-62 melanoma): 21.8 µM
GI50 (SK-MEL-28 melanoma): 16.2 µM
TGI (SK-MEL-28 melanoma): 29.7 µM
GI50 (OVCAR-3 ovarian): 15.3 µM
TGI (OVCAR-3 ovarian): 37.8 µM
